Measured values: PMC8762706, “Design of Coibamide A Mimetics with Improved Cellular Bioactivity” (ACS Medicinal Chemistry Letters, 2021)
Where a SMILES comes first, the peptide text is derived from it. Bridges are numbered along the chain shown (N, C = ends). [ ]: non-standard residue; d: D form. The star is where a group is joined. NMe2Val = CC(C)[C@@H](C(=O)*)N(C)C; NMeLys(Me) = CNCCCC[C@H](NC)C(=O)O; NMeI = CC[C@H](C)[C@H](NC)C(=O)O; Lys(Me) = CNCCCC[C@H](N)C(=O)O; NMeL = CN[C@@H](CC(C)C)C(=O)O; NMeOrn = CN[C@@H](CCCN)C(=O)O; dNMeOrn = CN[C@H](CCCN)C(=O)O; NMeK = CN[C@@H](CCCCN)C(=O)O; dNMeK = CN[C@H](CCCCN)C(=O)O; dHiv = CC(C)[C@@H](O)C(=O)O; NMeA = CN[C@@H](C)C(=O)O

System: A549 cells
Experiment: Growth inhibition assay (MTS) in A549 cells
Assay type: cell-based
Conditions: for IC50: read-out: IC50 (concentration for 50% growth inhibition of A549 cells), MTS assay, 72 h treatment, 0.5% DMSO, absorbance 490 nm, n = 3
Description: Growth Inhibition AssayS3
A549 cells were cultured in Dulbecco’s modified Eagle’s medium (DMEM; Sigma) supplemented with 10% (v/v) fetal bovine serum at 37 °C in a 5% CO2-incubator. Growth inhibition assays using A549 cells were performed in 96-well plates (BD Falcon). A549 cells were seeded at 1000 cells/well in 90 μL of culture media, respectively, and were cultured for 24 h. Chemical compounds in DMSO were diluted 50-fold with the culture medium in advance. 30 μL of the chemical diluents were added.
The final volume of DMSO in the medium was equal to 0.5% (v/v). The cells under chemical treatment were incubated for a further 72 h. The wells in the plates were washed twice with the cultured medium without phenol-red. After 1-hour incubation with 100 μL of the medium, the cell culture in each well was supplemented with 20 μL of the MTS reagent (Promega), followed by incubation for additional 40 min. Absorbance at 490 nm of each well was measured using a Wallac 1420 ARVO SX multilabel counter (Perkin Elmer). Three experiments were performed per condition and the averages of inhibition rates in each condition were evaluated to determine IC50 values using the GraphPad Prism software.

SMILES | IC50 [µM] | other results
CC[C@H](C)[C@H]1C(=O)N[C@@H](C)C(=O)N(C)[C@@H](CC(C)C)C(=O)N[C@@H](Cc2ccc(OC)cc2)C(=O)N(C)CCCC[C@H](N(C)C(=O)[C@H](CC(C)C)N(C)C(=O)[C@H](C)N(C)C(=O)[C@H](OC(=O)[C@H](C(C)C)N(C)C)C(C)C)C(=O)N(C)[C@@H](C)C(=O)N1C [2a, [MeAla^3, MeLys(Me)^5, MeAla^6]-CbA] (NMe2Val-[dHiv][NMeA][NMeL][NMeLys(Me)][NMeA][NMeI]A[NMeL]Y(Me); lactam 4-C) | – | times less active than the natural product 1 (ratio of IC50 values to 1): approximately 300 times
CC[C@H](C)[C@H]1C(=O)N[C@@H](C)C(=O)N(C)[C@@H](CC(C)C)C(=O)N[C@@H](Cc2ccc(OC)cc2)C(=O)N(C)CCC[C@H](N(C)C(=O)[C@H](CC(C)C)N(C)C(=O)[C@H](C)N(C)C(=O)[C@H](OC(=O)[C@H](C(C)C)N(C)C)C(C)C)C(=O)N(C)[C@@H](C)C(=O)N1C [2c] | 9.6 ± 3.2 | –
CC[C@H](C)[C@H]1C(=O)N[C@@H](C)C(=O)N(C)[C@@H](CC(C)C)C(=O)N[C@@H](Cc2ccc(OC)cc2)C(=O)N(C)CCC[C@@H](N(C)C(=O)[C@H](CC(C)C)N(C)C(=O)[C@H](C)N(C)C(=O)[C@H](OC(=O)[C@H](C(C)C)N(C)C)C(C)C)C(=O)N(C)[C@@H](C)C(=O)N1C [2d] | > 10 | –
CC[C@H](C)[C@H]1C(=O)N[C@@H](C)C(=O)N(C)[C@@H](CC(C)C)C(=O)N[C@@H](Cc2ccc(OC)cc2)C(=O)NCCCC[C@H](N(C)C(=O)[C@H](CC(C)C)N(C)C(=O)[C@H](C)N(C)C(=O)[C@H](OC(=O)[C@H](C(C)C)N(C)C)C(C)C)C(=O)N(C)[C@@H](C)C(=O)N1C [2e] (NMe2Val-[dHiv][NMeA][NMeL][NMeK][NMeA][NMeI]A[NMeL]Y(Me); lactam 4-C) | 0.85 ± 0.02 | –
CC[C@H](C)[C@H]1C(=O)N[C@@H](C)C(=O)N(C)[C@@H](CC(C)C)C(=O)N[C@@H](Cc2ccc(OC)cc2)C(=O)NCCCC[C@@H](N(C)C(=O)[C@H](CC(C)C)N(C)C(=O)[C@H](C)N(C)C(=O)[C@H](OC(=O)[C@H](C(C)C)N(C)C)C(C)C)C(=O)N(C)[C@@H](C)C(=O)N1C [2f] (NMe2Val-[dHiv][NMeA][NMeL][dNMeK][NMeA][NMeI]A[NMeL]Y(Me); lactam 4-C) | > 10 | –
CC[C@H](C)[C@H]1C(=O)N[C@@H](C)C(=O)N(C)[C@@H](CC(C)C)C(=O)N[C@@H](Cc2ccc(OC)cc2)C(=O)NCCC[C@H](N(C)C(=O)[C@H](CC(C)C)N(C)C(=O)[C@H](C)N(C)C(=O)[C@H](OC(=O)[C@H](C(C)C)N(C)C)C(C)C)C(=O)N(C)[C@@H](C)C(=O)N1C [2g] (NMe2Val-[dHiv][NMeA][NMeL][NMeOrn][NMeA][NMeI]A[NMeL]Y(Me); lactam 4-C) | > 10 | –
CC[C@H](C)[C@H]1C(=O)N[C@@H](C)C(=O)N(C)[C@@H](CC(C)C)C(=O)N[C@@H](Cc2ccc(OC)cc2)C(=O)NCCC[C@@H](N(C)C(=O)[C@H](CC(C)C)N(C)C(=O)[C@H](C)N(C)C(=O)[C@H](OC(=O)[C@H](C(C)C)N(C)C)C(C)C)C(=O)N(C)[C@@H](C)C(=O)N1C [2h] (NMe2Val-[dHiv][NMeA][NMeL][dNMeOrn][NMeA][NMeI]A[NMeL]Y(Me); lactam 4-C) | > 10 | –
CC[C@H](C)[C@H]1C(=O)N[C@@H](C)C(=O)N(C)[C@@H](CC(C)C)C(=O)N[C@@H](Cc2ccc(OC)cc2)C(=O)N(C)CCCC[C@H](N(C)C(=O)[C@H](CC(C)C)N(C)C(=O)[C@H](C)NC(=O)[C@H](OC(=O)[C@H](C(C)C)N(C)C)C(C)C)C(=O)N(C)[C@@H](C)C(=O)N1C [8a] (NMe2Val-[dHiv]A[NMeL][NMeLys(Me)][NMeA][NMeI]A[NMeL]Y(Me); lactam 4-C) | 2.2 ± 0.6 | –
CC[C@H](C)[C@H]1C(=O)N[C@@H](C)C(=O)N(C)[C@@H](CC(C)C)C(=O)N[C@@H](Cc2ccc(OC)cc2)C(=O)N(C)CCCC[C@H](NC(=O)[C@H](CC(C)C)N(C)C(=O)[C@H](C)N(C)C(=O)[C@H](OC(=O)[C@H](C(C)C)N(C)C)C(C)C)C(=O)N(C)[C@@H](C)C(=O)N1C [8c] (NMe2Val-[dHiv][NMeA][NMeL][Lys(Me)][NMeA][NMeI]A[NMeL]Y(Me); lactam 4-C) | 6.4 ± 1.7 | –
CC[C@H](C)[C@@H]1NC(=O)[C@H](C)N(C)C(=O)[C@@H](N(C)C(=O)[C@H](CC(C)C)N(C)C(=O)[C@H](C)N(C)C(=O)[C@H](OC(=O)[C@H](C(C)C)N(C)C)C(C)C)CCCCN(C)C(=O)[C@H](Cc2ccc(OC)cc2)NC(=O)[C@H](CC(C)C)N(C)C(=O)[C@H](C)NC1=O [8e] (NMe2Val-[dHiv][NMeA][NMeL][NMeLys(Me)][NMeA]IA[NMeL]Y(Me); lactam 4-C) | – | fold decrease in cytotoxicity compared with peptide 2a (ratio of IC50 values to 2a): nine-fold or more lower
